Where only a bound is given, the exact number is not on record here.

Series [1] can be described thus: Solubility of the cannabinol starting material in various solvents.
A further series deals with CB1 receptor (Homo sapiens, UniProt P21554). As to conditions: cited from earlier work.
The target in series [2] is cannabinoid G-protein coupled receptor CB2 (Homo sapiens, UniProt P34972). As to conditions: cited from earlier work.
The conditions of series [3]: solid, ambient conditions / storage.
Experimental: PXRD diffractograms were acquired on a PANalytical X'Pert Pro diffractometer using Ni-filtered Cu Ka (45 kV/40 mA) radiation and a step size of 0.03° 2θ and X'celerator™ RTMS (Real Time Multi-Strip) detector. Configuration on the incidental beam side: variable divergence slits (10 mm irradiated length), 0.04 rad Soller slits, fixed anti-scatter slit (0.50°), and 10 mm beam mask. Configuration on the diffracted beam side: variable anti-scatter slit (10 mm observed length) and 0.04 rad Soller slit. Samples were mounted flat on zero-background Si wafers.
PXRD diffractograms were acquired on a Bruker D8 Advance system (SN:2631) using Cu Ka (40 kV/40 mA) radiation and a step size of 0.03° 2θ and LynxEye detector. Configuration on the incident beam side: Goebel mirror, mirror exit slit (0.2 mm), 2.5 deg Soller slits, beam knife. Configuration on the diffracted beam side: anti-scatter slit (8 mm) and 2.5 deg. Soller slit. Samples were mounted flat on zero-background Si wafers.

cannabinoid G-protein coupled receptor CB2, sequence (P34972 whole entry): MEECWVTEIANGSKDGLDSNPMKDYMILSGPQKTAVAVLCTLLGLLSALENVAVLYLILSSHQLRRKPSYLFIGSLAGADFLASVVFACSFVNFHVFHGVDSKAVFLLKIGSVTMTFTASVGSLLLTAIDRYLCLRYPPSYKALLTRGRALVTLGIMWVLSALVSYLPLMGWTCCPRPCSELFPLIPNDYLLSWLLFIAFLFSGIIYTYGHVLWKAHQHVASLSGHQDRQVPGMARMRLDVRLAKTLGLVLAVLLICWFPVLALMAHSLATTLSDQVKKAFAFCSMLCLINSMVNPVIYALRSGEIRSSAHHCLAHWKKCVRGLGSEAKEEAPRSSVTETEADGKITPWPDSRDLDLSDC
CB1 receptor, sequence (P21554 whole entry): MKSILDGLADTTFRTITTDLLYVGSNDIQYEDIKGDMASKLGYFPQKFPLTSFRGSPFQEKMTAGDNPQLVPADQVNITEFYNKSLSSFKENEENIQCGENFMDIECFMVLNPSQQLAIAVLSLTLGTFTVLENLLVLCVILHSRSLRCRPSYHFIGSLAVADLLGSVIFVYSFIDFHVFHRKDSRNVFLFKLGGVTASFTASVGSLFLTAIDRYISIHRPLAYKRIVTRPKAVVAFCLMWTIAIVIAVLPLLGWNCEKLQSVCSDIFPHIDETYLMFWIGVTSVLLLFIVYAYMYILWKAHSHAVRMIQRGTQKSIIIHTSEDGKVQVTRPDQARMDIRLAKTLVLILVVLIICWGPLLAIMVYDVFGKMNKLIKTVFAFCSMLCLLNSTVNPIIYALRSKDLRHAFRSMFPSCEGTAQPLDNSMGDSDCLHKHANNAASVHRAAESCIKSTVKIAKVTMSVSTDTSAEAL

Turning to `CCCCCc1cc(O)c2c(c1)OC(C)(C)c1ccc(C)cc1-2` [cannabinol, 6,6,9-Trimethyl-3-pentyl-benzo[c]chromen-1-ol], the solubility (in general, the concentration that dissolves in the medium under given conditions) is less than 20 mg/mL in series [1] (water (1% methanol)); less than 20 mg/mL in series [1] (water (1% methanol), 40 °C); less than 20 mg/mL in series [1] (water (denatured with 1% MeOH)). The “affinity for CB1” value at CB1 receptor was “minimal affinity”. The “binding to CB2” value in series [2] is “preferentially binds”. Also, in series [2] (relative to THC), the “affinity for CB2 receptor relative to THC (fold lower)” value is recorded as “about 3 fold”.

As for `CCCCCc1cc(O)c2c(c1)OC(C)(C)c1ccc(C)cc1-2.O=C(O)C1CCCN1` [Mono-L-Proline Cocrystal Group C], in series [3], the “physical stability by PXRD” value is listed as “physically stable by PXRD for three days at ambient”.

(Values after patent US20230381134A1, “COCRYSTALS OF CANNABINOIDS” (PURISYS, LLC, priority 2020, published 2023).)
